The target in assay [1] is T1, Pseudomonas aeruginosa LpxC enzyme (Pseudomonas aeruginosa, UniProt P47205).
T1 construct: made in house; host or cells: E. coli
T1 sequence (P47205 1-303): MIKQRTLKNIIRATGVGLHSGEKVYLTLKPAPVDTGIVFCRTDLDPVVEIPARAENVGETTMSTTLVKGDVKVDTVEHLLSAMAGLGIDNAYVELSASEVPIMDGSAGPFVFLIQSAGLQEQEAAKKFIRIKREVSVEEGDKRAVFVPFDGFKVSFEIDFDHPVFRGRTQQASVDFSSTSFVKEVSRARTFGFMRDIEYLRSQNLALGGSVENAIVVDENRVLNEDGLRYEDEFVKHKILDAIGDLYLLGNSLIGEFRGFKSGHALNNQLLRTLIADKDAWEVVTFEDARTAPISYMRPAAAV
As to the kind of experiment: IC50 assay, LpxC enzyme from P. aeruginosa (PA LpxC enzyme IC50). It is filed as biochemical. Particulars: LpxC enzyme 0.1 nM, 25° C., 1 hour, read-out: PA:IC50. Summed up:
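The LpxC reaction ran 1 hour and was stopped with HCl. Substrate-to-product conversion was measured by RapidFire mass spectrometry, and IC50 values were calculated from percent conversion relative to a no-enzyme control.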

Assay [2] concerns Acinetobacter baumannii/haemolyticus, multidrug-resistant clinical isolate (AB-3167). Put plainly: MIC determination, AB-3167. It is filed as cell-based. A digest of the protocol:
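Broth dilution MIC per CLSI M7-A8, 2-fold drug series, overnight incubation, lowest concentration visibly inhibiting growth against drug-free control. Run in duplicate, lower value reported; duplicates differing >2-fold repeated; QC strains and reference compounds required in range.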

The test system of assay [3] is Escherichia coli EC-1: VOGEL, mouse virulent. Put plainly: MIC determination, EC-1. It is filed as cell-based. Particulars: for MIC: Escherichia coli. A digest of the protocol:
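MIC against mouse-virulent E. coli EC-1 (VOGEL) was determined by CLSI M7-A8 broth dilution with 2-fold drug increments and overnight incubation. The MIC is the lowest concentration with no visible growth versus drug-free control. Tests were run in duplicate and the lower value reported if within 2-fold, with QC organisms and reference drugs in each run.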

For assay [4], the system named is Pseudomonas aeruginosa UI-18: wild-type (PA-7). As to the kind of experiment: MIC determination, PA-7. It is filed as cell-based. Conditions: Table 2, lower of duplicate values. How it is done: The in vitro antibacterial activity of compounds described in the Examples was evaluated by minimum inhibitory concentration (MIC) testing according to Clinical and Laboratory Standards Institute (CLSI). See: Clinical and Laboratory Standards Institute. Methods for Dilution Antimicrobial Susceptibility Tests for Bacteria that Grow Aerobically; Approved Standard-Eighth Edition. CLSI document M7-A8 [ISBN 1-56238-689-1]. Clinical and Laboratory Standards Institute, 940 West Valley Road, Suite 1400, Wayne, Pa. 19087-1898 USA, 2006; also Clinical and Laboratory Standards Institute. Performance Standards for Antimicrobial Susceptibility Testing; Twentieth Informational Supplement. CLSI document M100-S20 [ISBN 1-56238-716-2]. Clinical and Laboratory Standards Institute.
The MIC determination is a standard laboratory method for evaluating the antibacterial activity of a compound. The MIC represents the lowest drug concentration that inhibits visible growth of bacteria following overnight incubation. […] Typically, the drug concentration range is broken down into 2-fold increments (e.g. 0.06 μg/mL, 0.12 μg/mL. 0.25 μg/mL, 0.50 μg/mL, 1.0 μg/mL, etc.) and the various drug concentrations are all individually incubated overnight with approximately the same number of bacteria. The MIC is then determined by visually inspecting the drug effect at each concentration, and identifying the lowest drug concentration that has inhibited bacterial growth as compared to the drug free control. Typically, bacteria continue to grow at drug concentrations lower than the MIC and don't grow at concentrations at and above the MIC.
The MIC values described in Table 2 and 3 below were derived from assays wherein each test compound was evaluated in duplicate. In cases where the duplicate values varied by 0-2-fold, the lower of the two values was reported below. Generally speaking, if the duplicate values varied by more than 2-fold, the assay was considered non-valid and was repeated until the variation between duplicate runs was ≦2-fold. In line with the CLSI guidelines referred to above, both control organisms and reference compounds were utilized in each MIC assay to provide proper quality control. MIC values generated with these control organisms and reference compounds were required to fall within a defined range for the assay to be considered valid and be included herein. Those skilled in the art will recognize that MIC values can and do vary from experiment to experiment. Generally speaking, it should be recognized that MIC values often vary +/−2-fold from experiment to experiment. While a single MIC is reported for each compound and each microorganism, the reader should not conclude that each compound was only tested once. Several of the compounds were subjected to multiple tests. The data reported in Tables 2 and 3 is reflective of the compounds relative activity and different MICs may have been generated on these occasions in line with the guidelines described above.
The following bacterial strains were used in these MIC determinations:
1) Pseudomonas aeruginosa UI-18: Wild-type, labeled as PA-7 in Tables 2 and 3;

The subject of the next assay is PA:UC12120. As to the kind of experiment: MIC determination, PA:UC12120 (Table 3). It is filed as cell-based, Pseudomonas aeruginosa. Conditions: for MIC: Pseudomonas aeruginosa, UC12120, Table 3, lower of duplicate values. Summed up:
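CLSI broth dilution MIC with 2-fold concentration steps, overnight incubation; MIC is the lowest concentration visibly inhibiting growth versus drug-free control. Run in duplicate, lower value reported when within 2-fold; control organisms and reference compounds required within defined ranges.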

Setting [5] is: Table 2, lower of duplicate values.
Setting [6] is: read-out: EC-1 (MIC), Table 2, lower of duplicate values.
The mark [7] stands for this setting: Table 3, lower of duplicate values.
The mark [8] stands for this setting: read-out: EC-1 (MIC), Table 3, lower of duplicate values.

Values after ≈ are worked out from the molar mass of the structure shown. Values joined by “and” are separate entries in the source; they are usually repeats but may differ in a detail not shown here. Identical values can stand only once. Like-named read-outs stand apart in the source and are kept apart here.

Broadly, the IC50 is the concentration that gives 50% inhibition. In general, MIC refers to the least concentration at which growth counts as inhibited. As to `C[C@@](CCn1cc(F)c(-c2ccc(-c3ncco3)cc2)cc1=O)(C(=O)NO)S(C)(=O)=O` [Example 42, (2R)-4-[5-Fluoro-4-[4-(1,3-oxazol-2-yl)phenyl]-2-oxopyridin-1(2H)-yl]-N-hydroxy-2-methyl-2-(methylsulfonyl)butanamide], the IC50 in assay [1] (Table 2) turned out to be 0.328 nM. In addition, the figures for the MIC in assay [2] (setting [5]), in assay [3] (setting [6]) and in assay [4] were above 64 µg/mL, 0.25 µg/mL (≈ 0.556 µM) and 1 µg/mL (≈ 2.22 µM), respectively.

`Cc1cccc(-c2cc(=O)n(CC[C@](C)(C(=O)NO)S(C)(=O)=O)cc2F)c1F` [Example 2, (2R)-4-[5-Fluoro-4-(2-fluoro-3-methylphenyl)-2-oxopyridin-1(2H)-yl]-N-hydroxy-2-methyl-2-(methylsulfonyl)butanamide]: the IC50 in assay [1] (Table 2) stood at 0.595 nM. Moreover, the MIC in assay [2] (setting [5]) is above 64 µg/mL; in assay [3] (setting [6]), 0.25 µg/mL (≈ 0.603 µM); in assay [4], 0.25 µg/mL (≈ 0.603 µM).

`C[C@@](CCn1cc(F)c(-c2ccccc2F)cc1=O)(C(=O)NO)S(C)(=O)=O` [Example 4, (2R)-4-[5-Fluoro-4-(2-fluorophenyl)-2-oxopyridin-1(2H)-yl]-N-hydroxy-2-methyl-2-(methylsulfonyl)butanamide]: the IC50 in assay [1] (Table 2) amounted to 0.717 nM. Moreover, the MIC is above 64 µg/mL in assay [2] (setting [5]), 2 µg/mL (≈ 4.99 µM) in assay [3] (setting [6]) and 0.5 µg/mL (≈ 1.25 µM) in assay [4].

Consider `COc1c(-c2ccccc2)c(F)cn(CC[C@](C)(C(=O)NO)S(C)(=O)=O)c1=O` [Example 39, (2R)-4-(5-Fluoro-3-methoxy-2-oxo-4-phenylpyridin-1(2H)-yl)-N-hydroxy-2-methyl-2-(methylsulfonyl)butanamide], for which, in assay [1] (Table 2), the half-inhibitory concentration (IC50) amounted to 8.07 nM. The results for the MIC in assay [2] (setting [5]), in assay [3] (setting [6]) and in assay [4] were 64 µg/mL (≈ 155 µM), 4 µg/mL (≈ 9.7 µM) and 8 µg/mL (≈ 19.4 µM), respectively.

For the compound `Cc1cc(-c2cc(=O)n(CC[C@](C)(C(=O)NO)S(C)(=O)=O)cc2F)ccc1-n1nccn1` [Example 37, (2R)-4-{5-Fluoro-4-[3-methyl-4-(2H-1,2,3-triazol-2-yl)phenyl]-2-oxopyridin-1(2H)-yl}-N-hydroxy-2-methyl-2-(methylsulfonyl)butanamide], the MIC in assay [2] (setting [5]) is above 64 µg/mL; in assay [3] (setting [6]), 0.5 µg/mL (≈ 1.08 µM); in assay [4], 1 µg/mL (≈ 2.16 µM).

As for `C[C@@](CCn1cc(F)c(-c2ccc3c(c2)OC(F)(F)O3)cc1=O)(C(=O)NO)S(C)(=O)=O` [Example 47, (2R)-4-[4-(2,2-Difluoro-1,3-benzodioxol-5-yl)-5-fluoro-2-oxopyridin-1(2H)-yl]-N-hydroxy-2-methyl-2-(methylsulfonyl)butanamide], the MIC in assay [2] (setting [5]) was above 64 µg/mL; in assay [3] (setting [6]) it was 0.25 µg/mL (≈ 0.541 µM); in assay [4], 0.5 µg/mL (≈ 1.08 µM).

Turning to `CC(CCn1cc(F)c(-c2ccc3c(c2)CCO3)cc1=O)(C(=O)NO)S(C)(=O)=O` (stereo not drawn) [Example 120, 4-[4-(2,3-dihydro-1-benzofuran-5-yl)-5-fluoro-2-oxopyridin-1(2H)-yl]-N-hydroxy-2-methyl-2-(methylsulfonyl)butanamide], the IC50 in assay [1] (Table 3) was determined as 0.9 nM. For the same compound, the results for the MIC (in assay [2] (setting [7]); in assay [3] (setting [8]); in the assay with PA:UC12120) were above 64 µg/mL, 2 µg/mL (≈ 4.71 µM) and 1 µg/mL (≈ 2.36 µM), respectively.

On to `CN1Cc2cc(-c3cc(=O)n(CCC(C)(C(=O)NO)S(C)(=O)=O)cc3F)ccc2C1=O` (stereo not drawn) [Example 64, 4-[5-fluoro-4-(2-methyl-1-oxo-2,3-dihydro-1H-isoindol-5-yl)-2-oxopyridin-1(2H)-yl]-N-hydroxy-2-methyl-2-(methylsulfonyl)butanamide], for which the IC50 in assay [1] (Table 3) came to 7.2 nM. For the same compound, the MIC in assay [2] (setting [7]) was above 64 µg/mL; in assay [3] (setting [8]) it was above 64 µg/mL; in the assay with PA:UC12120 it was 64 µg/mL (≈ 142 µM).

For the compound `CC(CCn1cc(F)c(-c2ccc(CC#N)cc2)cc1=O)(C(=O)NO)S(C)(=O)=O` (stereo not drawn) [Example 91, 4-{4-[4-(cyanomethyl)phenyl]-5-fluoro-2-oxopyridin-1(2H)-yl}-N-hydroxy-2-methyl-2-(methylsulfonyl)butanamide], the IC50 in assay [1] (Table 3) was determined as 2.3 nM. Also, the MIC in assay [2] (setting [7]) is above 64 µg/mL; in assay [3] (setting [8]) it was 16 µg/mL (≈ 38 µM); against PA:UC12120 it was 4 µg/mL (≈ 9.49 µM).

With `CNC(=O)c1ccc(-c2cc(=O)n(CCC(C)(C(=O)NO)S(C)(=O)=O)cc2F)cc1` (stereo not drawn) [Example 84, 4-{5-fluoro-1-[4-(hydroxyamino)-3-methyl-3-(methylsulfonyl)-4-oxobutyl]-2-oxo-1,2-dihydropyridin-4-yl}-N-methylbenzamide], the IC50 in assay [1] (Table 3) amounted to 14.5 nM. Further, the MIC (in assay [2] (setting [7]); in assay [3] (setting [8]); in the assay with PA:UC12120) was above 64 µg/mL each time.

For the compound `CC(CCn1cc(F)c(-c2ccc3cn[nH]c3c2)cc1=O)(C(=O)NO)S(C)(=O)=O` (stereo not drawn) [Example 51, 4-[5-fluoro-4-(1H-indazol-6-yl)-2-oxopyridin-1(2H)-yl]-N-hydroxy-2-methyl-2-(methylsulfonyl)butanamide], the IC50 in assay [1] (Table 3) came out at 3.9 nM. Also, the MIC (in assay [2] (setting [7]); in assay [3] (setting [8]); in the assay on PA:UC12120) was above 64 µg/mL in each case.

Consider `CC(CCn1cc(F)c(-c2ccc(F)cc2)cc1=O)(C(=O)NO)S(C)(=O)=O` (stereo not drawn) [Example 86, 4-[5-fluoro-4-(4-fluorophenyl)-2-oxopyridin-1(2H)-yl]-N-hydroxy-2-methyl-2-(methylsulfonyl)butanamide], for which, in assay [1] (Table 3), the IC50 came to 1.7 nM. Moreover, the figures for the minimum inhibitory concentration (MIC) (in assay [2] (setting [7]); in assay [3] (setting [8]); in the assay with PA:UC12120) were above 64 µg/mL, 4 µg/mL (≈ 9.99 µM) and 1 µg/mL (≈ 2.5 µM), respectively.

For the compound `COc1c(F)cc(-c2cc(=O)n(CCC(C)(C(=O)NO)S(C)(=O)=O)cc2F)cc1F` (stereo not drawn) [Example 62, 4-[4-(3,5-difluoro-4-methoxyphenyl)-5-fluoro-2-oxopyridin-1(2H)-yl]-N-hydroxy-2-methyl-2-(methylsulfonyl)butanamide], the IC50 in assay [1] (Table 3) is 2 nM and 3.1 nM. Moreover, the MIC is above 64 µg/mL in assay [2] (setting [7]), 4 µg/mL (≈ 8.92 µM) in assay [3] (setting [8]) and 2 µg/mL (≈ 4.46 µM) in the assay with PA:UC12120. The “EC-1 (MIC)” value in assay [3] (setting [7]) worked out at 8 µg/mL. Also, the “PA:UC12120 (MIC)” value in the assay on PA:UC12120 (setting [7]) was found to be 1 µg/mL.

As to `CC(CCn1cc(F)c(-c2ccc(Cl)cc2)cc1=O)(C(=O)NO)S(C)(=O)=O` (stereo not drawn) [Example 107, 4-[4-(4-chlorophenyl)-5-fluoro-2-oxopyridin-1(2H)-yl]-N-hydroxy-2-methyl-2-(methylsulfonyl)butanamide], the IC50 in assay [1] (Table 3) is 1 nM. Besides, the MIC in assay [2] (setting [7]) was above 64 µg/mL; in assay [3] (setting [8]), 1 µg/mL (≈ 2.4 µM); against PA:UC12120, 0.25 µg/mL (≈ 0.6 µM).

Consider `COc1cc(C#N)cc(-c2cc(=O)n(CCC(C)(C(=O)NO)S(C)(=O)=O)cc2F)c1` (stereo not drawn) [Example 119, 4-[4-(3-cyano-5-methoxyphenyl)-5-fluoro-2-oxopyridin-1(2H)-yl]-N-hydroxy-2-methyl-2-(methylsulfonyl)butanamide], for which the IC50 in assay [1] (Table 3) worked out at 50.8 nM. The MIC in assay [2] (setting [7]) is above 64 µg/mL; in assay [3] (setting [8]), above 64 µg/mL; against PA:UC12120 it was 64 µg/mL (≈ 146 µM).
